Measured values: the NIST ThermoML archive (doi:10.1007/s10765-011-1087-7)

What was measured:
[1] = xn = mol fraction of the nth substance listed; conditions: 101 kPa, Liquid; for speed of sound: Pulse-echo method
[2] = refractive index (Na D-line) (dimensionless); xn = mol fraction of the nth substance listed; conditions: 101 kPa, Liquid

CCCCCCC(C)O (stereo not drawn) [2-octanol] + Clc1ccccc1Cl
Conditions | mass density, [1] [kg/m3] | refractive index, [2] | speed of sound, [1] [m/s] | viscosity, [1] [mPa·s]
298.15 K, x2 = 0.0721 | 841.72 | 1.4308 | 1302 | 5.353
298.15 K, x2 = 0.1124 | 856.33 | 1.4352 | 1299.7 | 4.742
298.15 K, x2 = 0.1868 | 884.26 | 1.443 | 1295.1 | 3.839
298.15 K, x2 = 0.2615 | 913.56 | 1.4507 | 1291 | 3.163
298.15 K, x2 = 0.3223 | 938.42 | 1.4569 | 1287.8 | 2.721
298.15 K, x2 = 0.3758 | 961.09 | 1.4624 | 1285.1 | 2.414
298.15 K, x2 = 0.4495 | 993.6 | 1.4698 | 1281.8 | 2.086
298.15 K, x2 = 0.512 | 1022.45 | 1.4763 | 1279.1 | 1.873
298.15 K, x2 = 0.5923 | 1061.35 | 1.4848 | 1276.1 | 1.668
298.15 K, x2 = 0.6557 | 1093.66 | 1.492 | 1274.5 | 1.551
298.15 K, x2 = 0.7312 | 1134.18 | 1.5014 | 1273.2 | 1.406
298.15 K, x2 = 0.797 | 1171.44 | 1.5103 | 1273 | 1.293
298.15 K, x2 = 0.8672 | 1213.47 | 1.521 | 1274.4 | 1.283
298.15 K, x2 = 0.9481 | 1265.11 | 1.5353 | 1277.6 | 1.308
303.15 K, x2 = 0.0721 | 837.79 | 1.4293 | 1283.9 | 4.223
303.15 K, x2 = 0.1124 | 852.34 | 1.4336 | 1281.6 | 3.749
303.15 K, x2 = 0.1868 | 880.15 | 1.4416 | 1277.6 | 3.115
303.15 K, x2 = 0.2615 | 909.35 | 1.4492 | 1273.5 | 2.648
303.15 K, x2 = 0.3223 | 934.11 | 1.4552 | 1270.5 | 2.342
303.15 K, x2 = 0.3758 | 956.68 | 1.4604 | 1267.9 | 2.15
303.15 K, x2 = 0.4495 | 989.05 | 1.4678 | 1264.9 | 1.942
303.15 K, x2 = 0.512 | 1017.76 | 1.4741 | 1262.2 | 1.772
303.15 K, x2 = 0.5923 | 1056.48 | 1.4828 | 1259.6 | 1.613
303.15 K, x2 = 0.6557 | 1088.63 | 1.4902 | 1258 | 1.473
303.15 K, x2 = 0.7312 | 1128.95 | 1.4997 | 1257 | 1.34
303.15 K, x2 = 0.797 | 1166.05 | 1.509 | 1256.7 | 1.253
303.15 K, x2 = 0.8672 | 1207.93 | 1.52 | 1257.9 | 1.201
303.15 K, x2 = 0.9481 | 1259.5 | 1.5342 | 1261.6 | 1.223
308.15 K, x2 = 0.0721 | 833.8 | 1.4274 | 1266.6 | 3.524
308.15 K, x2 = 0.1124 | 848.27 | 1.4319 | 1264 | 3.227
308.15 K, x2 = 0.1868 | 875.95 | 1.4399 | 1260.1 | 2.763
308.15 K, x2 = 0.2615 | 905.03 | 1.4476 | 1256.2 | 2.38
308.15 K, x2 = 0.3223 | 929.69 | 1.4534 | 1253.3 | 2.121
308.15 K, x2 = 0.3758 | 952.17 | 1.4587 | 1250.8 | 1.933
308.15 K, x2 = 0.4495 | 984.42 | 1.4658 | 1247.6 | 1.7
308.15 K, x2 = 0.512 | 1013.02 | 1.4718 | 1245.4 | 1.532
308.15 K, x2 = 0.5923 | 1051.57 | 1.48 | 1242.9 | 1.362
308.15 K, x2 = 0.6557 | 1083.59 | 1.4873 | 1241.5 | 1.243
308.15 K, x2 = 0.7312 | 1123.75 | 1.4967 | 1240.5 | 1.157
308.15 K, x2 = 0.797 | 1160.72 | 1.5059 | 1240.4 | 1.132
308.15 K, x2 = 0.8672 | 1202.46 | 1.5168 | 1241.5 | 1.133
308.15 K, x2 = 0.9481 | 1253.92 | 1.531 | 1243.9 | 1.14
